Assay results as given in article PMC13224050, “Synthesis and characterization of a novel phosphatidylinositol 5-phosphate (PI(5)P) photoaffinity probe” (RSC Chemical Biology, 2026).

What was measured:
[1] = target: T1, hTAF3 (Homo sapiens, UniProt Q5VWG9); assay: photo-crosslinking with TAMRA click SDS-PAGE; type: binding; conditions: covalent; 365 nm 30 min
T1 construct: gene TAF3; purified recombinant, bacterially expressed; abstract prints TAF1 instead
T1 sequence (Q5VWG9 1-929): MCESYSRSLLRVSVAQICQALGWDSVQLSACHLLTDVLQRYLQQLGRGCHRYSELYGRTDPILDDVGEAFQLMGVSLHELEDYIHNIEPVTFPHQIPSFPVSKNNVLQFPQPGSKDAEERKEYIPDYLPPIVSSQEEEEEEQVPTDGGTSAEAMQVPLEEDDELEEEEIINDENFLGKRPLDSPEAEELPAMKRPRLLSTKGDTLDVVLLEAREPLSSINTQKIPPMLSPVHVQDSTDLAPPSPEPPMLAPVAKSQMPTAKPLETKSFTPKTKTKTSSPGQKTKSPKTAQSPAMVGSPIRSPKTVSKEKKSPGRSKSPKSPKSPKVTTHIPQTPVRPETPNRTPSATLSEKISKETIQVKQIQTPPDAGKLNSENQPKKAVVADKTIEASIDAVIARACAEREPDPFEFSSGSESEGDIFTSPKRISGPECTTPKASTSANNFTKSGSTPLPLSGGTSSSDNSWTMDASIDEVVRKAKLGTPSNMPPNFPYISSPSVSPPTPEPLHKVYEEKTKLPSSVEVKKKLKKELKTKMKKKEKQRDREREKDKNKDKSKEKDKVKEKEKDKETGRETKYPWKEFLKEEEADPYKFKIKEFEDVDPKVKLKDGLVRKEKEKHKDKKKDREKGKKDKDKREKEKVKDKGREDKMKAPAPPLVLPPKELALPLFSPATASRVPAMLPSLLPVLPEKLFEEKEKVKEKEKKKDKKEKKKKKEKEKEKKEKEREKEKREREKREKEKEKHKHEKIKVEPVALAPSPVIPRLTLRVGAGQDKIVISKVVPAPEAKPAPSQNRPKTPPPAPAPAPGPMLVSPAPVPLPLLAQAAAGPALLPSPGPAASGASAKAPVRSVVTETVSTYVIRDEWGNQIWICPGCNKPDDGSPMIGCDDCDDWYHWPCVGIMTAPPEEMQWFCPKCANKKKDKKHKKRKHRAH

[2] = target: T2, hUHRF1 (Homo sapiens, UniProt Q96T88); assay: microscale thermophoresis; type: binding
T2 construct: gene UHRF1; purified recombinant, bacterially expressed; domains UBL, TTD, PHD, SRA, RING
T2 sequence (Q96T88 1-793): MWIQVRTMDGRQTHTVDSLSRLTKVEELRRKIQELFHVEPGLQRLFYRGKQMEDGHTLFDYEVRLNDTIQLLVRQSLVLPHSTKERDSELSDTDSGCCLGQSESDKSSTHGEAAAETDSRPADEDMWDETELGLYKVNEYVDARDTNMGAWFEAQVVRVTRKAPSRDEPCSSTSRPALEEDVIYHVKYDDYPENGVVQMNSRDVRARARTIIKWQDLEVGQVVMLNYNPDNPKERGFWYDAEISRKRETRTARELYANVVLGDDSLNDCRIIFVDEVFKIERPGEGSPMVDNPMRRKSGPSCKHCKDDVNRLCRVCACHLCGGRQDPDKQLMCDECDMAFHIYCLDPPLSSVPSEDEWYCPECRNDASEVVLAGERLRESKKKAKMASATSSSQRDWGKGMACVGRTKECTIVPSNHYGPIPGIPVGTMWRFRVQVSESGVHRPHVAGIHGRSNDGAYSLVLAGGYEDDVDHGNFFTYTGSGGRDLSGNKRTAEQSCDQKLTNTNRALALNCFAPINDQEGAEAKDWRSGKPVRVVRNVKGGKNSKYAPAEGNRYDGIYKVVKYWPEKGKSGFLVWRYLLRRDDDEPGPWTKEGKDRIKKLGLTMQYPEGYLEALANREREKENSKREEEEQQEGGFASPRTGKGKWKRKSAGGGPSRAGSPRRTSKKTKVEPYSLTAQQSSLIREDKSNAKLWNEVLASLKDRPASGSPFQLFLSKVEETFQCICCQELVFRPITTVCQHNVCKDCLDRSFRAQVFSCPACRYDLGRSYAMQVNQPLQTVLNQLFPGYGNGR

| Kd [2] [µM] | Structure (SMILES) | photo-crosslinking with TAMRA click SDS-PAGE [1] |
| --- | --- | --- |
|  | C#CCCCCCCCCCCC1(CCC(=O)O[C@H](COC(=O)CCCCCCCCCCCCCCC)COP(=O)(O)O[C@H]2[C@H](O)[C@@H](OP(=O)(O)O)[C@H](O)[C@@H](O)[C@H]2O)N=N1 [compound 9, PI(5)P diazirine probe] | confirming that the diazirine probe bound to bacterially expressed recombinant hUHRF1 and hTAF3 |
| ~8.6 | CCCCCCCCCCCCCCCC(=O)OC[C@H](COP(=O)(O)O[C@H]1[C@H](O)[C@@H](OP(=O)(O)O)[C@H](O)[C@@H](O)[C@H]1O)OC(=O)CCCCCCCCCCCCCCC [compound 1, di-C16 : 0 PI(5)P] |  |
